Measurements as given in BindingDB's records for doi:10.1021/jm034188j (Morphochem, 2004).

Molecular target: Methionine aminopeptidase (Staphylococcus aureus (strain MW2), UniProt P0A079)
Test: MetAP Inhibition Assay
Conditions: pH 7.5; 22 °C
Protocol: The MetAP reaction with Co2+ as a cofactor is coupled to a prolyl aminopeptidase (ProAP) using Met-Pro-p-nitroanilide as substrate. MetAP-catalyzed cleavage of the N-terminal methionine produces prolyl-p-nitroanilide, which is rapidly hydrolyzed by ProAP to release a chromogenic product. This allows the MetAP reaction to be continuously monitored at 405 nm on a UVVIS spectrophotometer. The initial rate was calculated from the early part of the reaction progress curve (<5 min). Activity assays were performed in triplicate using eight to 16 concentrations of substrate or inhibitor.

Chain of Methionine aminopeptidase (P0A079 whole entry): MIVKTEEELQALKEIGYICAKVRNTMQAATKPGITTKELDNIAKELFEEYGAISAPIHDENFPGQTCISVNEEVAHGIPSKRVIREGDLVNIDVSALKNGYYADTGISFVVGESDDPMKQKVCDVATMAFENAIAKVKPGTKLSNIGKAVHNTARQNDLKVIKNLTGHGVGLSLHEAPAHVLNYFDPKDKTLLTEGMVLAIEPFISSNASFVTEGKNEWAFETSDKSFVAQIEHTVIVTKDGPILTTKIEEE

Compound: CSCC[C@H](N)C(=O)c1nccs1 [(2S)-2-amino-4-(methylsulfanyl)-1-(1,3-thiazol-2-yl)butan-1-one]
- IC50: 19 µM

Compound: CSCC[C@H](N)C(=O)c1ccccn1 [(2S)-2-amino-4-(methylsulfanyl)-1-(pyridin-2-yl)butan-1-one]
- IC50: 16 µM
